Measured values published in paper PMC6271825, “Synthesis and Cytotoxic Activity Evaluation of Novel Arylpiperazine Derivatives on Human Prostate Cancer Cell Lines” (Molecules, 2014).

What was measured:
Assay type in all cases: cell-based
[1] = tested on: PC-3 cells; assay: CCK-8 in vitro cytotoxicity assay, PC-3; details: human prostate cancer cell line PC-3, CCK-8, 24 h exposure, mean ± SD of three experiments
Experimental: (§1) The synthesized target compounds 5 to 29 were evaluated for their in vitro cytotoxic activities against the three human prostate cancer cell lines (PC-3, LNCaP, and DU145), and compared with their effects on human prostate epithelial cell line RWPE-1 by CCK-8 assay.
(§2) PC-3 and RWPE-1 cells were cultured in Dulbecco’s modification Eagle’s medium (DMEM, Invitrogen, Carlsbad, CA, USA) supplemented with 10% fetal bovine serum (FBS, Hyclone, Logan, UT, USA), 100 U/mL penicillin and 0.1 mg/mL streptomycin (Invitrogen). DU145 cells were cultured in RPMI1640 media supplemented with 10% fetal bovine serum (FBS, Hyclone), 100 U/mL penicillin and 0.1 mg/mL streptomycin (Invitrogen). LNCaP cells were cultured in F12 media supplemented with 10% fetal bovine serum (FBS, Hyclone), 100 U/mL penicillin and 0.1 mg/mL streptomycin (Invitrogen). The cells were incubated at 37 °C in a humidified atmosphere with 5% CO2.
(§3) Cell proliferation was measured with the Cell Counting Kit-8 (CCK-8) assay kit (Dojindo Corp., Kumamoto, Japan). Cells were harvested during logarithmic growth phase and seeded in 96-well plates at a density of 1 × 10^5 cells/mL, and cultured at 37 °C in a humidified incubator (5% CO2) for 24 h, followed by exposure to various concentrations of compounds tested for 24 h. Subsequently 10 μL of CCK-8 (Dojindo) was added to each well, the cells were then incubated for an additional 1 h at 37 °C to convert WST-8 into formazan. Cell growth inhibition was determined by measuring the absorbance (Abs) at λ = 450 nm using amicroplate reader. Three independent experiments were performed. Cell growth inhibition was calculated according to the following equation: Growth inhibition = (1 − OD of treated cells/OD of control cells) × 100%
(§4) The half maximal inhibitory concentrations (IC50) were obtained from linear regression analysis of the concentration-response curves plotted for each tested compound.

[2] = tested on: LNCaP cells; assay: CCK-8 in vitro cytotoxicity assay, LNCaP; details: human prostate cancer cell line LNCaP, CCK-8, 24 h exposure, mean ± SD of three experiments
Experimental: as §1, §2, §3, §4

[3] = tested on: DU145 cells; assay: CCK-8 in vitro cytotoxicity assay, DU145; details: DU-145; human prostate cancer cell line DU145, CCK-8, 24 h exposure, mean ± SD of three experiments
Experimental: as §1, §2, §3, §4

[4] = tested on: RWPE-1 cells; assay: CCK-8 in vitro cytotoxicity assay, RWPE-1 normal prostate epithelial cells; details: human prostate epithelial cell line RWPE-1 (normal), CCK-8, 24 h exposure, mean ± SD of three experiments
Experimental: as §1, §2, §3, §4

Row | Compound | IC50 [1] [µM] | IC50 ([2]; Homo sapiens, LNCaP, 24 h) [µM] | IC50 [3] [µM] | IC50 [4] [µM] | IC50 [2] [µM]
1 | Brc1ccc(N2CCN(CCc3ccc(COc4ccc5c(c4)OCO5)cc3)CC2)cc1 [Compound 24, 1-(2-(4-((Benzo[d][1,3]dioxol-5-yloxy)methyl)phenyl)ethyl)-4-(4-bromophenyl)piperazine] | > 50 | 19.9 ± 1.01 | > 50 | > 50 | –
2 | c1ccc(N2CCN(CCc3ccc(COc4ccc5c(c4)OCO5)cc3)CC2)nc1 [Compound 7, 1-(2-(4-((Benzo[d][1,3]dioxol-5-yloxy)methyl)phenyl)ethyl)-4-(pyridin-2-yl)piperazine] | > 50 | 31.2 ± 0.63 | > 50 | 41.1 ± 0.54 | –
3 | Cc1ccccc1N1CCN(CCc2ccc(COc3ccc4c(c3)OCO4)cc2)CC1 [Compound 9, 1-(2-(4-((Benzo[d][1,3]dioxol-5-yloxy)methyl)phenyl)ethyl)-4-o-tolylpiperazine] | > 50 | < 5 | > 50 | 31 ± 1.57 | 3.47 ± 0.36
4 | Clc1cccc(N2CCN(CCc3ccc(COc4ccc5c(c4)OCO5)cc3)CC2)c1 [Compound 21, 1-(2-(4-((Benzo[d][1,3]dioxol-5-yloxy)methyl)phenyl)ethyl)-4-(3-chlorophenyl)piperazine] | > 50 | 25.3 ± 1.55 | > 50 | > 50 | –
5 | N#Cc1ccc(N2CCN(CCc3ccc(COc4ccc5c(c4)OCO5)cc3)CC2)c(F)c1 [Compound 18, 4-(4-(2-(4-((Benzo[d][1,3]dioxol-5-yloxy)methyl)phenyl)ethyl)piperazin-1-yl)-3-fluorobenzonitrile] | 26.9 ± 1 | 13.1 ± 0.51 | > 50 | > 50 | –
6 | c1ccc(N2CCN(CCc3ccc(COc4ccc5c(c4)OCO5)cc3)CC2)cc1 [Compound 5, 1-(2-(4-((Benzo[d][1,3]dioxol-5-yloxy)methyl)phenyl)ethyl)-4-phenylpiperazine] | > 50 | 27.9 ± 1.72 | > 50 | > 50 | –
7 | Fc1ccc(N2CCN(CCc3ccc(COc4ccc5c(c4)OCO5)cc3)CC2)c(F)c1 [Compound 17, 1-(2-(4-((Benzo[d][1,3]dioxol-5-yloxy)methyl)phenyl)ethyl)-4-(2,4-difluorophenyl)piperazine] | > 50 | 26.8 ± 1 | 26.8 ± 0.92 | 23.9 ± 0.75 | –
8 | Clc1ccccc1N1CCN(CCc2ccc(COc3ccc4c(c3)OCO4)cc2)CC1 [Compound 19, 1-(2-(4-((Benzo[d][1,3]dioxol-5-yloxy)methyl)phenyl)ethyl)-4-(2-chlorophenyl)piperazine] | > 50 | 26.6 ± 0.4 | > 50 | 29.9 ± 0.8 | –
9 | Fc1ccc(N2CCN(CCc3ccc(COc4ccc5c(c4)OCO5)cc3)CC2)cc1 [Compound 16, 1-(2-(4-((Benzo[d][1,3]dioxol-5-yloxy)methyl)phenyl)ethyl)-4-(4-fluorophenyl)piperazine] | > 50 | 32.5 ± 1.04 | > 50 | > 50 | –
10 | FC(F)(F)c1ccc(N2CCN(CCc3ccc(COc4ccc5c(c4)OCO5)cc3)CC2)cc1 [Compound 26, 1-(2-(4-((Benzo[d][1,3]dioxol-5-yloxy)methyl)phenyl)ethyl)-4-(4-(trifluoromethyl)phenyl)piperazine] | > 50 | 26.8 ± 1.51 | > 50 | > 50 | –
11 | COc1ccc(Cl)cc1N1CCN(CCc2ccc(COc3ccc4c(c3)OCO4)cc2)CC1 [Compound 23, 1-(2-(4-((Benzo[d][1,3]dioxol-5-yloxy)methyl)phenyl)ethyl)-4-(5-chloro-2-methoxyphenyl)piperazine] | > 50 | 33.2 ± 2.69 | > 50 | 35.9 ± 1.25 | –
12 | COc1ccc(N2CCN(CCc3ccc(COc4ccc5c(c4)OCO5)cc3)CC2)cc1 [Compound 13, 1-(2-(4-((Benzo[d][1,3]dioxol-5-yloxy)methyl)phenyl)ethyl)-4-(4-methoxyphenyl)piperazine] | > 50 | 28.3 ± 0.49 | > 50 | > 50 | –
13 | CC(=O)c1ccc(N2CCN(CCc3ccc(COc4ccc5c(c4)OCO5)cc3)CC2)cc1 [Compound 27, 1-(4-(4-(2-(4-((Benzo[d][1,3]dioxol-5-yloxy)methyl)phenyl)ethyl)piperazin-1-yl)phenyl)ethanone] | 24.9 ± 0.68 | > 50 | > 50 | 26.8 ± 3.01 | –
14 | c1ccc(C2CCN(CCc3ccc(COc4ccc5c(c4)OCO5)cc3)CC2)cc1 [Compound 28, 1-(2-(4-((Benzo[d][1,3]dioxol-5-yloxy)methyl)phenyl)ethyl)-4-phenylpiperidine] | > 50 | 18.2 ± 1.88 | 24.7 ± 2.22 | 28.5 ± 2.18 | –
15 | c1ccc(CN2CCN(CCc3ccc(COc4ccc5c(c4)OCO5)cc3)CC2)cc1 [Compound 6, 1-(2-(4-((Benzo[d][1,3]dioxol-5-yloxy)methyl)phenyl)ethyl)-4-benzylpiperazine] | > 50 | 27.7 ± 4.17 | 28.9 ± 0.98 | 38.8 ± 0.77 | –
16 | Cc1cccc(N2CCN(CCc3ccc(COc4ccc5c(c4)OCO5)cc3)CC2)c1 [Compound 11, 1-(2-(4-((Benzo[d][1,3]dioxol-5-yloxy)methyl)phenyl)ethyl)-4-m-tolylpiperazine] | > 50 | > 50 | > 50 | > 50 | –
17 | Clc1ccc(N2CCN(CCc3ccc(COc4ccc5c(c4)OCO5)cc3)CC2)cc1 [Compound 20, 1-(2-(4-((Benzo[d][1,3]dioxol-5-yloxy)methyl)phenyl)ethyl)-4-(4-chlorophenyl)piperazine] | > 50 | > 50 | > 50 | > 50 | –
18 | COc1ccccc1N1CCN(CC(O)COc2cccc3ccccc23)CC1 (stereo not shown) [naftopidil, reference compound] | 42.1 ± 0.79 | 22.4 ± 0.61 | 34.58 ± 0.31 | > 50 | –
19 | Cc1ccc(N2CCN(CCc3ccc(COc4ccc5c(c4)OCO5)cc3)CC2)cc1 [Compound 10, 1-(2-(4-((Benzo[d][1,3]dioxol-5-yloxy)methyl)phenyl)ethyl)-4-p-tolylpiperazine] | > 50 | 31.9 ± 0.89 | 47.8 ± 2.02 | > 50 | –
20 | Clc1cccc(N2CCN(CCc3ccc(COc4ccc5c(c4)OCO5)cc3)CC2)c1Cl [Compound 22, 1-(2-(4-((Benzo[d][1,3]dioxol-5-yloxy)methyl)phenyl)ethyl)-4-(2,3-dichlorophenyl)piperazine] | > 50 | 39.4 ± 0.54 | > 50 | > 50 | –
21 | COc1cccc(N2CCN(CCc3ccc(COc4ccc5c(c4)OCO5)cc3)CC2)c1 [Compound 14, 1-(2-(4-((Benzo[d][1,3]dioxol-5-yloxy)methyl)phenyl)ethyl)-4-(3-methoxyphenyl)piperazine] | > 50 | > 50 | > 50 | 39 ± 0.77 | –
22 | Fc1ccccc1N1CCN(CCc2ccc(COc3ccc4c(c3)OCO4)cc2)CC1 [Compound 15, 1-(2-(4-((Benzo[d][1,3]dioxol-5-yloxy)methyl)phenyl)ethyl)-4-(2-fluorophenyl)piperazine] | > 50 | – | > 50 | 41 ± 0.47 | –
